Source: US20060127505A1, “Anti-inflammatory formulations” (priority 2002, published 2006)
“Also recorded” adds a separate entry of the source. Counter-ions that a name gives are not always drawn. Marks after values point to notes of the source that are not given here.

Assays:
[1] = tested on: CD3+HLA-DR+ T lymphocytes in human PBMC; assay: PHA induction of HLA-DR+ on CD3+ T cells, PBMC from asthma patients (Example 5); type: cell-based; settings: for SI HLA-DR: PHA 50 μg/ml, 24 hours
Description: (§1) Experiments were carried out to determine whether the immunoregulatory capacity of two commonly-used H1-inhibitory antihistamines: cetirizine dihydrochloride (CTZ/Zyrtec) and azelastine ([…]) is potentiated by the platelet activating factor receptor (PAFR) antagonist and free radical scavenger Ginkgolide B (GB). […] Each drug was first evaluated independently over a 3-log dose range from 10^-8-10^-6 M.

[2] = tested on: CD3+CD25+ T lymphocytes in human PBMC; assay: PHA induction of CD25+ on CD3+ T cells, PBMC from asthma patients (Example 5); type: cell-based; settings: for SI CD25: PHA 50 μg/ml, 24 hours
Description: as §1

[3] = tested on: CD3+CD25+ cells in human PBMC; assay: T lymphocyte activation (CD3+CD25+) in PHA-stimulated PBMC of asthma patients (Example 6); type: cell-based; settings: PHA 50 μg/ml, 24 hours; 10^−5 M
Description: Experiments were carried out to determine whether formulations based on the platelet activating factor receptor (PAFR) antagonist and free radical scavenger Ginkgolide B (GB) in combination with the antioxidant carotenoid astaxanthin (ASX) suppress T cell activation in the same dose range as two commonly-used antihistamines: cetirizine dihydrochloride (CTZ/Zyrtec) and azelastine ([…]). […] Results are reported as stimulation indices (SI) of % CD3+CD25+ cells in cultures treated with PHA alone to % CD3+CD25+ cells in each drug-supplemented culture. […] Subjects for this study included 12 patients diagnosed with atopic asthma, 7 male and 5 female, ranging in age from 21 to 40 years (mean 28±1.8 years). Disease duration ranged from 2 to 12 years. Atopy was defined on the basis of one or more positive skin prick tests to a range of 20 allergens. None of the patients had received systemic therapy for at least 6 weeks prior to blood collection. The mean serum IgE was 335 (170-480) IU/ml. Venous blood for each subject was collected in polyethylene tubes containing EDTA during a one hour morning time interval. PBMC were separated by Ficoll-paque (Pharmacia, Uppsala, Sweden) density gradient centrifugation. Cells were washed and suspended in RPMI 1640 medium (Gibco BRL, Gaithersburg, Md.) at density of 1×10^6 cells/ml. PBMC were stimulated with 50 μg/ml Phytohemaglutinin (PHA) (Sigma Immunopharmaceuticals, St. Lous Mo.), or PHA plus 10^-8-10^-5 M astaxanthin (Natural Alternatives International (NAI) Inc., San Marcos Calif.); or ginkgolide B 10^-8-10^-6 M (NAI San Marcos Calif.); or selected combinations of ASX plus GB. Comparison of ASX and GB effects on T cell activation were made with two other pharmacological agents with anti-asthmatic properties by treating cells with 10^-7-10^-4 M cetirizine dihydrochloride (Pfizer Pharmaceuticals, Norwich Conn.); or 10^-7-10^-4 M azalestine hydrochloride (Wallace Pharmaceuticals, Somerset N.J.), followed by evaluation of cultures for the same biological endpoints as ASX/GB-treated cells. Each reagent was added at the outset of a 24 hours culture period, followed by harvest of cellular fraction for immunophenotyping studies. […] Two-color Flow cytometry was conducted using a Coulter Epics XL automated flow cytometer (Coulter Scientific, Hialeah, Fla., USA). Isotypic controls for the monoclonal antibodies (mAb) used to detect antigens of interest were established for each cell preparation. Positive analysis regions for cells expressing specific surface markers were set against controls and specific binding of fluorophore-conjugated mAb was analyzed by cytofluorography according to standard methods recommended by the manufacturer. Lymphocyte subpopulations were identified by position on forward and side scatter plots and live-gated. Expression of each antigen was reported as percentage cells positive for a particular T cell subpopulation defined by expression of CD3 (T lymphocyte marker) plus CD25, plus or minus standard error. Statistical analysis was performed using an independent t-test. All statistical analyses were performed using the SPSS for Windows statistical package (Norusis/SPSS, Inc.). […] The capacity of formulations evaluated in this study to suppress immune activation was measured as a stimulation index (SI), defined as the ratio of […].

[4] = tested on: ovalbumin(OA)-induced asthma in guinea pigs; assay: Ovalbumin-induced asthma in guinea pigs: inflammatory cells in BAL fluid; type: in vivo, guinea pig; settings: for Eosinophils / Macrophages / Neutrophils: BAL fluid 24 hours after OV challenge
Description: The effect combinations of vitamin C, astaxanthin, and ginkolide on asthma-associated disease parameters ovalbumin(OA)-induced asthma in guinea pigs was evaluated. Twenty-four hours following OA challenge, animals are sacrificed and numbers of inflammatory cells (eosinophils, neutrophils, macrophages) are measured in bronchoalveolar lavage (BAL) fluid; and cAMP and cGMP concentrations in the lung tissue. The experiments were carried out as follows. Male Hartley guinea pigs (250-350 g) were sensitized by intramuscular injections of 0.35 ml of a 5% (W/V) ovalbumin (OA)/saline solution into each thigh on days 1 and 4. Guinea pigs were ready for asthmatic challenge after 25 days of ovalbumin injection. Asthmatic challenge was carried out with ovalbumin aerosol, and bronchoalveolar lavage (BAL) was done 24 hours later. The numbers of eosinophils, neutrophils, and macrophages in the BAL fluid were counted. Twenty-four hours after the aerosol OA challenge, guinea pigs were killed by cervical dislocation and exsanguinated by severing the axillary arteries. Lungs were lavaged with 50 ml of DulBecco's phosphate-buffered saline (aliquots of 10 ml), which were aspirated after gentle chest massage. BAL fluid was centrifuged at 2200 rpm (1100×g) for 10 min, supernatant was aspirated, and pellets were resuspended in 5 ml 0.25% NaCl to lyse residual erythrocytes. This dispersion was centrifuged at 2200 rpm (1100×g) for 10 min, supernatant was aspirated, and pellets were resuspended 5 ml 0.9% NaCl. Total cell counts were done by hemocytometry using trypan blue stain. Slides were prepared on a Shandon Cytospin 2 (Pittsburgh, Pa.) at 300 rpm for 5 min, fixed and stained. Differential cell counts were done using standard morphologic criteria to classify cells as eosinophils, neutrophils, or macrophages, and the results were expressed in cell numbers. The dose-responsive effect of AX, EGb761, and vitamin C administered independently for suppression of asthma-associated parameters in allergen-induced, asthmatic guinea pigs was determined. Ibuprophen (IB) was used as the positive control. Concentration of inflammatory cells in bronchoalveolar lavage (BAL) fluid and levels of cAMP and cGMP in lung tissue were measured in guinea pigs 24 hours following challenge with OV. Data is reported as mean±SD of measurements taken in 6 animals per dosage cohort. *p<0.05 compared to corresponding values of OV antigen-challenged, drug-free control group. The dose-responsive effect of AX, EGb761, and vitamin C administered in combination for suppression of asthma-associated parameters in allergen-induced, asthmatic guinea pigs was determined. The combination of these three components was given each day for each guinea pig as a “cocktail”. Concentration of inflammatory cells in bronchoalveolar lavage (BAL) fluid and levels of cAMP and cGMP in lung tissue were measured in guinea pigs 24 hours following challenge with OV. Data is reported as mean±SD of measurements taken in 6 animals per dosage cohort. *p<0.05 compared to corresponding values of OV antigen-challenged, drug-free control group.

[5] = tested on: cAMP and cGMP concentrations in the lung tissue; assay: Ovalbumin-induced asthma in guinea pigs: cAMP and cGMP in lung tissue (radioimmunoassay); type: in vivo, guinea pig; settings: lung tissue 24 hours after OV challenge
Description: The effect combinations of vitamin C, astaxanthin, and ginkolide on asthma-associated disease parameters ovalbumin(OA)-induced asthma in guinea pigs was evaluated. Twenty-four hours following OA challenge, animals are sacrificed and numbers of inflammatory cells (eosinophils, neutrophils, macrophages) are measured in bronchoalveolar lavage (BAL) fluid; and cAMP and cGMP concentrations in the lung tissue. The experiments were carried out as follows. Male Hartley guinea pigs (250-350 g) were sensitized by intramuscular injections of 0.35 ml of a 5% (W/V) ovalbumin (OA)/saline solution into each thigh on days 1 and 4. Guinea pigs were ready for asthmatic challenge after 25 days of ovalbumin injection. Asthmatic challenge was carried out with ovalbumin aerosol, and bronchoalveolar lavage (BAL) was done 24 hours later. The numbers of eosinophils, neutrophils, and macrophages in the BAL fluid were counted. Biopsies from lung tissues, cAMP and cGMP were measured using commercially available radioimmunoassay kits (Amersham). Immediately after sampling, lung biopsies were frozen by means of a Wollenberger clamp prechilled in liquid nitrogen. Samples were powdered with a pestle and mortar in liquid nitrogen and trichloro acetic acid (TCA) was added to the powdered frozen samples ([…] of tissue). Samples were further homogenized in the frozen TCA in the braying mortar and then centrifuged at 14,000×g for 10 min at 4° C. The supernatants were extracted 6 times in water-saturated diethylether, evaporated and assayed for cGMP by radioimmunoassay using liquid scintillation counter (Packard, Tri-Carb 2100TR). The dose-responsive effect of AX, EGb761, and vitamin C administered independently for suppression of asthma-associated parameters in allergen-induced, asthmatic guinea pigs was determined. Ibuprophen (IB) was used as the positive control. Concentration of inflammatory cells in bronchoalveolar lavage (BAL) fluid and levels of cAMP and cGMP in lung tissue were measured in guinea pigs 24 hours following challenge with OV. […] The dose-responsive effect of AX, EGb761, and vitamin C administered in combination for suppression of asthma-associated parameters in allergen-induced, asthmatic guinea pigs was determined. The combination of these three components was given each day for each guinea pig as a “cocktail”. Concentration of inflammatory cells in bronchoalveolar lavage (BAL) fluid and levels of cAMP and cGMP in lung tissue were measured in guinea pigs 24 hours following challenge with OV.

SMILES: O=C(O)COCCN1CCN(C(c2ccccc2)c2ccc(Cl)cc2)CC1 (centres unmarked) [CTZ, cetirizine dihydrochloride]
- decrease in SI for HLA-DR ([1]; 10^−8 M): 53%
- SI HLA-DR ([1]; 10^−6 M): 0.70 ± 0.04
- SI HLA-DR ([1]; 10^−7 M): 0.58 ± 0.11
- SI HLA-DR ([1]; 10^−8 M): 0.47 ± 0.13
- decrease in SI for CD25+ ([2]; 10^−8 M): 29%
- SI CD25 ([2]; 10^−6 M): 0.93 ± 0.06
- SI CD25 ([2]; 10^−7 M): 0.88 ± 0.14
- SI CD25 ([2]; 10^−8 M): 0.71 ± 0.12
- SI (CD3+CD25+) [3]: 0.78±0.11

SMILES: CC(C)Cc1ccc(C(C)C(=O)O)cc1 (centres unmarked) [IB, Ibuprophen, reference compound]
- Eosinophils ([4]; 10 mg/kg): 5.4 ± 0.8 cell × 10^6/animal
- Macrophages ([4]; 10 mg/kg): 9.5 ± 0.8 cell × 10^6/animal
- Neutrophils ([4]; 10 mg/kg): 5.7 ± 0.7 cell × 10^5/animal
- Eosinophils ([4]; 100 mg/kg): 4.7 ± 0.6 cell × 10^6/animal
- Macrophages ([4]; 100 mg/kg): 9.0 ± 1.3 cell × 10^6/animal
- Neutrophils ([4]; 100 mg/kg): 5.0 ± 0.7 cell × 10^5/animal
- Eosinophils ([4]; 500 mg/kg): 3.0 ± 0.8* cell × 10^6/animal
- Macrophages ([4]; 500 mg/kg): 4.7 ± 1.3* cell × 10^6/animal
- Neutrophils ([4]; 500 mg/kg): 3.1 ± 0.9* cell × 10^5/animal
- Eosinophils ([4]; 1000 mg/kg): 2.9 ± 0.5* cell × 10^6/animal
- Macrophages ([4]; 1000 mg/kg): 4.3 ± 0.9* cell × 10^6/animal
- Neutrophils ([4]; 1000 mg/kg): 3.1 ± 0.5* cell × 10^5/animal
- cAMP ([5]; 10 mg/kg): 7.1 ± 0.6 pmol (mg protein)^−1
- cGMP ([5]; 10 mg/kg): 1.1 ± 0.2 pmol (mg protein)^−1
- cAMP ([5]; 100 mg/kg): 7.3 ± 0.9 pmol (mg protein)^−1
- cGMP ([5]; 100 mg/kg): 1.1 ± 0.2 pmol (mg protein)^−1
- cAMP ([5]; 500 mg/kg): 8.2 ± 0.8 pmol (mg protein)^−1
- cGMP ([5]; 500 mg/kg): 1.4 ± 0.2 pmol (mg protein)^−1
- cAMP ([5]; 1000 mg/kg): 8.1 ± 0.9 pmol (mg protein)^−1
- cGMP ([5]; 1000 mg/kg): 1.6 ± 0.2 pmol (mg protein)^−1

SMILES: CN1CCCC(n2nc(Cc3ccc(Cl)cc3)c3ccccc3c2=O)CC1 (centres unmarked) [AZE, azelastine]
- decrease in SI for HLA-DR ([1]; 10^−8 M): 45%
- SI HLA-DR ([1]; 10^−6 M): 0.61 ± 0.13
- SI HLA-DR ([1]; 10^−7 M): 0.56 ± 0.10
- SI HLA-DR ([1]; 10^−8 M): 0.55 ± 0.09
- decrease in SI for CD25+ ([2]; 10^−8 M): 19%
- SI CD25 ([2]; 10^−6 M): 1.13 ± 0.15
- SI CD25 ([2]; 10^−7 M): 0.88 ± 0.08
- SI CD25 ([2]; 10^−8 M): 0.81 ± 0.08
- SI (CD3+CD25+) [3]: 0.76±0.12

SMILES: O=C1O[C@H]([C@@H](O)CO)C(O)=C1O [Vitamin C, ascorbic acid]
- Eosinophils ([4]; 50 mg/kg): 5.5 ± 0.5 cell × 10^6/animal
- Macrophages ([4]; 50 mg/kg): 9.5 ± 0.9 cell × 10^6/animal
- Neutrophils ([4]; 50 mg/kg): 5.4 ± 0.6 cell × 10^5/animal
- Eosinophils ([4]; 100 mg/kg): 5.5 ± 0.8 cell × 10^6/animal
- Macrophages ([4]; 100 mg/kg): 9.8 ± 0.9 cell × 10^6/animal
- Neutrophils ([4]; 100 mg/kg): 5.6 ± 0.8 cell × 10^5/animal
- Eosinophils ([4]; 200 mg/kg): 4.8 ± 1.1 cell × 10^6/animal
- Macrophages ([4]; 200 mg/kg): 9.2 ± 0.8 cell × 10^6/animal
- Neutrophils ([4]; 200 mg/kg): 5.0 ± 0.8 cell × 10^5/animal
- Eosinophils ([4]; 400 mg/kg): 3.5 ± 0.9* cell × 10^6/animal
- Macrophages ([4]; 400 mg/kg): 7.2 ± 1.5* cell × 10^6/animal
- Neutrophils ([4]; 400 mg/kg): 4.7 ± 0.9 cell × 10^5/animal
- protection against OV-induced asthma ([4]; components used separately: 10 mg/kg AX, 200 mg/kg vit C, 10 mg/kg GB): failed to protect; also recorded: failed to reduce the severity of asthma
- cAMP ([5]; 50 mg/kg): 6.8 ± 0.5 pmol (mg protein)^−1
- cGMP ([5]; 50 mg/kg): 1.1 ± 0.2 pmol (mg protein)^−1
- cAMP ([5]; 100 mg/kg): 7.1 ± 0.8 pmol (mg protein)^−1
- cGMP ([5]; 100 mg/kg): 1.0 ± 0.2 pmol (mg protein)^−1
- cAMP ([5]; 200 mg/kg): 7.9 ± 0.9 pmol (mg protein)^−1
- cGMP ([5]; 200 mg/kg): 1.2 ± 0.2 pmol (mg protein)^−1
- cAMP ([5]; 400 mg/kg): 7.9 ± 0.8 pmol (mg protein)^−1
- cGMP ([5]; 400 mg/kg): 1.5 ± 0.2 pmol (mg protein)^−1
